The source of these data is patent publication US12310975B2, “Modulators of BCL6 proteolysis and associated methods of use” (Arvinas Operations, Inc., priority 2019, dated 2025).

One may read the IC50 as the concentration needed to halve the response being measured. What is called Dmax is the greatest extent of degradation seen.

Assay [1] deals with T1, BCL6 (Homo sapiens (Human), UniProt P41182). Put plainly: BCL6 TR-FRET assay (BCL6-Avitag-Biotin / BCoR-Cy5 peptide). In kind it is binding. The following applies: read-out: IC50. In outline:
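After 30 min room-temperature preincubation of compound titrations with 2 nM biotinylated BCL6-Avitag, 100 nM Cy5-labelled BCoR peptide plus 2 nM Eu-streptavidin were added and TR-FRET read 2 h later. HEPES pH 7.5/125 mM NaCl buffer with Triton X, glutathione (or DTT) and BSA.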
In general terms: In TR-FRET formats the signal depends on donor and acceptor labels being close together.

Assay [2] deals with T1, BCL6. As to the kind of experiment: Immunofluorescence high content imaging of BCL6 degradation in T47D cells. The assay is classed as cell-based. The settings on record: T47D. A digest of the protocol:
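Seed T47D in RPMI1640-10% FBS to reach ~70-90% confluence at endpoint; add degrader next day (11-point 3-fold series, top 0.1 or 1 μM final) for 3 days. Then fix, permeabilize, stain BCL6 with nuclear Hoechst, and image.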

As for `CNC(=O)COc1cc2cc(Nc3nc(N4CCC5(CCN(CC6CCN(c7ccc8c(c7)C(=O)N(C7CCC(=O)NC7=O)C8=O)CC6)CC5)C4)ncc3Cl)ccc2n(C(C)C)c1=O` (stereo not drawn) [compound 490, 2-{[6-({5-chloro-2-[8-({1-[2-(2,6-dioxopiperidin-3-yl)-1,3-dioxo-2,3-dihydro-1H-isoindol-5-yl]piperidin-4-yl}methyl)-2,8-diazaspiro[4.5]decan-2-yl]pyrimidin-4-yl}amino)-2-oxo-1-(propan-2-yl)-1,2-dihydroquinolin-3-yl]oxy}-N-methylacetamide], in assay [1], the IC50 is less than 0.01 µM. The compound further gave a Dmax in assay [2] of 50 to 70%.

Regarding `CNC(=O)COc1cc2cc(Nc3nc(N4CCC[C@H](COc5cccc6c5C(=O)N(C5CCC(=O)NC5=O)C6=O)C4)ncc3Cl)ccc2n(CC2COC2)c1=O` (stereo partly drawn) [compound 491, 2-{[6-({5-chloro-2-[(3S)-3-({[2-(2,6-dioxopiperidin-3-yl)-1,3-dioxo-2,3-dihydro-1H-isoindol-4-yl]oxy}methyl)piperidin-1-yl]pyrimidin-4-yl}amino)-1-[(oxetan-3-yl)methyl]-2-oxo-1,2-dihydroquinolin-3-yl]oxy}-N-methylacetamide], the IC50 in assay [1] is not below 0.1 µM. The Dmax in assay [2] was not below 70%.

`Cn1c(=O)n(CCC(C)(C)O)c2cc(Nc3nc(N4CCC(CN5CCN(c6cccc7c6C(=O)N(C6CCC(=O)NC6=O)C7=O)CC5)CC4)ncc3Cl)ccc21` (stereo not drawn) [compound 492, 4-(4-{[1-(5-chloro-4-{[3-(3-hydroxy-3-methylbutyl)-1-methyl-2-oxo-2,3-dihydro-1H-1,3-benzodiazol-5-yl]amino}pyrimidin-2-yl)piperidin-4-yl]methyl}piperazin-1-yl)-2-(2,6-dioxopiperidin-3-yl)-2,3-dihydro-1H-isoindole-1,3-dione]: in assay [1], the IC50 lay within 0.05 to 0.1 µM. In assay [2], this compound yielded a Dmax of 50 to 70%.

In the case of `Cn1c(=O)n(CCC(C)(C)O)c2cc(Nc3nc(N4CCC(OC5CC6(CCN(c7cccc8c7C(=O)N(C7CCC(=O)NC7=O)C8=O)CC6)C5)CC4)ncc3Cl)ccc21` (stereo not drawn) [compound 493, 4-(2-{[1-(5-chloro-4-{[3-(3-hydroxy-3-methylbutyl)-1-methyl-2-oxo-2,3-dihydro-1H-1,3-benzodiazol-5-yl]amino}pyrimidin-2-yl)piperidin-4-yl]oxy}-7-azaspiro[3.5]nonan-7-yl)-2-(2,6-dioxopiperidin-3-yl)-2,3-dihydro-1H-isoindole-1,3-dione], the 50% inhibitory concentration (IC50) in assay [1] lay in the range of 0.01 to 0.05 µM. The same compound had a Dmax in assay [2] of less than 50%.

For `CNC(=O)COc1cc2cc(Nc3nc(N4CCC(CN5CCC6(CCN(c7ccc8c(c7)C(=O)N(C7CCC(=O)NC7=O)C8=O)CC6)C5)CC4)ncc3Cl)ccc2n(C(C)C)c1=O` (stereo not drawn) [compound 494, 2-{[6-({5-chloro-2-[4-({8-[2-(2,6-dioxopiperidin-3-yl)-1,3-dioxo-2,3-dihydro-1H-isoindol-5-yl]-2,8-diazaspiro[4.5]decan-2-yl}methyl)piperidin-1-yl]pyrimidin-4-yl}amino)-2-oxo-1-(propan-2-yl)-1,2-dihydroquinolin-3-yl]oxy}-N-methylacetamide], in assay [1], the IC50 is less than 0.01 µM. In assay [2], the Dmax fell in the range of 50 to 70%.

Turning to `CNC(=O)COc1cc2cc(Nc3nc(N4CCC(CN5CCC6(CC5)CCN(c5ccc7c(c5)C(=O)N(C5CCC(=O)NC5=O)C7=O)CC6)CC4)ncc3Cl)ccc2n(C(C)C)c1=O` (stereo not drawn) [compound 495, 2-{[6-({5-chloro-2-[4-({9-[2-(2,6-dioxopiperidin-3-yl)-1,3-dioxo-2,3-dihydro-1H-isoindol-5-yl]-3,9-diazaspiro[5.5]undecan-3-yl}methyl)piperidin-1-yl]pyrimidin-4-yl}amino)-2-oxo-1-(propan-2-yl)-1,2-dihydroquinolin-3-yl]oxy}-N-methylacetamide], in assay [1], the IC50 was less than 0.01 µM. This compound showed a Dmax in assay [2] of 50 to 70%.

As to `CNC(=O)COc1cc2cc(Nc3nc(N4CCC5(CCN(CC6CCN(c7ccc8c(c7)C(=O)N(C7CCC(=O)NC7=O)C8=O)CC6)CC5)CC4)ncc3Cl)ccc2n(C(C)C)c1=O` (stereo not drawn) [compound 496, 2-{[6-({5-chloro-2-[9-({1-[2-(2,6-dioxopiperidin-3-yl)-1,3-dioxo-2,3-dihydro-1H-isoindol-5-yl]piperidin-4-yl}methyl)-3,9-diazaspiro[5.5]undecan-3-yl]pyrimidin-4-yl}amino)-2-oxo-1-(propan-2-yl)-1,2-dihydroquinolin-3-yl]oxy}-N-methylacetamide], the IC50 in assay [1] was less than 0.01 µM. The compound also registered a Dmax in assay [2] of 50 to 70%.

With `CNC(=O)COc1cc2cc(Nc3nc(N4CCC(CN5CCC6(CC5)CCN(c5ccc(N7CCC(=O)NC7=O)cc5)C6)CC4)ncc3Cl)ccc2n(C(C)C)c1=O` [compound 497, 2-{[6-({5-chloro-2-[4-({2-[4-(2,4-dioxo-1,3-diazinan-1-yl)phenyl]-2,8-diazaspiro[4.5]decan-8-yl}methyl)piperidin-1-yl]pyrimidin-4-yl}amino)-2-oxo-1-(propan-2-yl)-1,2-dihydroquinolin-3-yl]oxy}-N-methylacetamide], the IC50 in assay [1] was less than 0.01 µM. This compound registered a Dmax in assay [2] of less than 50%.

As to `CNC(=O)COc1cc2cc(Nc3nc(N4CCC(CN5CC(N6CCN(c7cccc8c7C(=O)N(C7CCC(=O)NC7=O)C8=O)CC6)C5)CC4)ncc3Cl)ccc2n(C(C)C)c1=O` (stereo not drawn) [compound 499, 2-({6-[(5-chloro-2-{4-[(3-{4-[2-(2,6-dioxopiperidin-3-yl)-1,3-dioxo-2,3-dihydro-1H-isoindol-4-yl]piperazin-1-yl}azetidin-1-yl)methyl]piperidin-1-yl}pyrimidin-4-yl)amino]-2-oxo-1-(propan-2-yl)-1,2-dihydroquinolin-3-yl}oxy)-N-methylacetamide], the IC50 in assay [1] is less than 0.01 µM. The Dmax in assay [2] is not below 70%.

In the case of `CNC(=O)COc1cc2cc(Nc3nc(N4CCC(CN5CC6(CCN(c7ccc8c(c7)C(=O)N(C7CCC(=O)NC7=O)C8=O)C6)C5)CC4)ncc3Cl)ccc2n(C(C)C)c1=O` (stereo not drawn) [compound 500, 2-{[6-({5-chloro-2-[4-({6-[2-(2,6-dioxopiperidin-3-yl)-1,3-dioxo-2,3-dihydro-1H-isoindol-5-yl]-2,6-diazaspiro[3.4]octan-2-yl}methyl)piperidin-1-yl]pyrimidin-4-yl}amino)-2-oxo-1-(propan-2-yl)-1,2-dihydroquinolin-3-yl]oxy}-N-methylacetamide], the IC50 in assay [1] was less than 0.01 µM. Moreover, the maximal degradation (Dmax) in assay [2] was in the range of 50 to 70%.

`CNC(=O)COc1cc2cc(Nc3nc(N4CCC(CN5CC6(CCN(c7cccc8c7C(=O)N(C7CCC(=O)NC7=O)C8=O)C6)C5)CC4)ncc3Cl)ccc2n(C(C)C)c1=O` (stereo not drawn) [compound 501, 2-{[6-({5-chloro-2-[4-({6-[2-(2,6-dioxopiperidin-3-yl)-1,3-dioxo-2,3-dihydro-1H-isoindol-4-yl]-2,6-diazaspiro[3.4]octan-2-yl}methyl)piperidin-1-yl]pyrimidin-4-yl}amino)-2-oxo-1-(propan-2-yl)-1,2-dihydroquinolin-3-yl]oxy}-N-methylacetamide]: the IC50 in assay [1] was less than 0.01 µM. The Dmax in assay [2] is 50 to 70%.

Regarding `CNC(=O)COc1cc2cc(Nc3nc(N4CCC(CN5CCC6(C5)CN(c5cccc7c5C(=O)N(C5CCC(=O)NC5=O)C7=O)C6)CC4)ncc3Cl)ccc2n(C(C)C)c1=O` (stereo not drawn) [compound 502, 2-{[6-({5-chloro-2-[4-({2-[2-(2,6-dioxopiperidin-3-yl)-1,3-dioxo-2,3-dihydro-1H-isoindol-4-yl]-2,6-diazaspiro[3.4]octan-6-yl}methyl)piperidin-1-yl]pyrimidin-4-yl}amino)-2-oxo-1-(propan-2-yl)-1,2-dihydroquinolin-3-yl]oxy}-N-methylacetamide], in assay [1], the IC50 was less than 0.01 µM. The compound also showed a Dmax in assay [2] of 50 to 70%.

As to `CNC(=O)COc1cc2cc(Nc3nc(N4CCN(CC5CCN(c6cccc7c6C(=O)N(C6CCC(=O)NC6=O)C7=O)CC5)CC4)ncc3Cl)ccc2n(CCC2COC2)c1=O` (stereo not drawn) [compound 503, 2-{[6-({5-chloro-2-[4-({1-[2-(2,6-dioxopiperidin-3-yl)-1,3-dioxo-2,3-dihydro-1H-isoindol-4-yl]piperidin-4-yl}methyl)piperazin-1-yl]pyrimidin-4-yl}amino)-1-[2-(oxetan-3-yl)ethyl]-2-oxo-1,2-dihydroquinolin-3-yl]oxy}-N-methylacetamide], the IC50 in assay [1] was less than 0.01 µM. Besides, in assay [2], the Dmax is not below 70%.

For `CNC(=O)COc1cc2cc(Nc3nc(N4CCC[C@H](COc5cccc6c5C(=O)N(C5CCC(=O)NC5=O)C6=O)C4)ncc3Cl)ccc2n(CCC2COC2)c1=O` (stereo partly drawn) [compound 504, 2-{[6-({5-chloro-2-[(3S)-3-({[2-(2,6-dioxopiperidin-3-yl)-1,3-dioxo-2,3-dihydro-1H-isoindol-4-yl]oxy}methyl)piperidin-1-yl]pyrimidin-4-yl}amino)-1-[2-(oxetan-3-yl)ethyl]-2-oxo-1,2-dihydroquinolin-3-yl]oxy}-N-methylacetamide], the IC50 in assay [1] lay in the range of 0.05 to 0.1 µM. The compound also returned a Dmax in assay [2] not below 70%.

As for `Cn1c(=O)n(CCC(C)(C)O)c2cc(Nc3nc(N4CCN(CC5CCN(c6cccc7c6C(=O)N(C6CCC(=O)NC6=O)C7=O)CC5)CC4)ncc3Cl)ccc21` (stereo not drawn) [compound 505, 4-(4-{[4-(5-chloro-4-{[3-(3-hydroxy-3-methylbutyl)-1-methyl-2-oxo-2,3-dihydro-1H-1,3-benzodiazol-5-yl]amino}pyrimidin-2-yl)piperazin-1-yl]methyl}piperidin-1-yl)-2-(2,6-dioxopiperidin-3-yl)-2,3-dihydro-1H-isoindole-1,3-dione], the IC50 in assay [1] is 0.05 to 0.1 µM. The Dmax in assay [2] fell in the range of 50 to 70%.
